Test results as given in ChEMBL document CHEMBL4507259 (2021).

Key:
[1] = biological target: cAMP-dependent protein kinase catalytic subunit PRKX (Homo sapiens) (UniProt P51817); conditions: Compound concentration 1000.0 nM
[2] = biological target: Calcium/calmodulin-dependent protein kinase kinase 1 (Homo sapiens) (UniProt Q8N5S9); conditions: Compound concentration 1000.0 nM
[3] = tested on: Tyrosine-protein kinase ABL1 (Homo sapiens), P00519 [E255K]; conditions: Compound concentration 1000.0 nM
[4] = tested on: Receptor-type tyrosine-protein kinase FLT3 (Homo sapiens), P36888 [N841I]; conditions: Compound concentration 1000.0 nM
[5] = tested on: eIF-2-alpha kinase GCN2 (Homo sapiens), Q9P2K8 [S808G]; conditions: Compound concentration 1000.0 nM
[6] = biological target: Serine/threonine-protein kinase mTOR (Homo sapiens) (UniProt P42345); conditions: Compound concentration 1000.0 nM
[7] = biological target: Mitogen-activated protein kinase kinase kinase 15 (Homo sapiens) (UniProt Q6ZN16); conditions: Compound concentration 1000.0 nM
[8] = biological target: Motilin receptor (Homo sapiens) (UniProt O43193); assay: motilin (h) CEREP ligand profiling; conditions: filed as agonist, Compound concentration 10.0 uM
[9] = biological target: RAF proto-oncogene serine/threonine-protein kinase (Homo sapiens) (UniProt P04049); conditions: Compound concentration 1000.0 nM
[10] = biological target: Receptor-type tyrosine-protein kinase FLT3 (Homo sapiens) (UniProt P36888); conditions: Compound concentration 1000.0 nM
[11] = biological target: Casein kinase II subunit alpha (Homo sapiens) (UniProt P68400); conditions: Compound concentration 1000.0 nM
[12] = biological target: Misshapen-like kinase 1 (Homo sapiens) (UniProt Q8N4C8); conditions: Compound concentration 1000.0 nM
[13] = biological target: Tyrosine-protein kinase Fgr (Homo sapiens) (UniProt P09769); conditions: Compound concentration 1000.0 nM
[14] = biological target: Cyclin-dependent kinase 19 (Homo sapiens) (UniProt Q9BWU1); conditions: Compound concentration 1000.0 nM
[15] = tested on: Receptor-type tyrosine-protein kinase FLT3 (Homo sapiens), P36888 [K663Q]; conditions: Compound concentration 1000.0 nM
[16] = biological target: Leukocyte tyrosine kinase receptor (Homo sapiens) (UniProt P29376); conditions: Compound concentration 1000.0 nM
[17] = biological target: Serine/threonine-protein kinase TAO2 (Homo sapiens) (UniProt Q9UL54); conditions: Compound concentration 1000.0 nM
[18] = tested on: Epidermal growth factor receptor (Homo sapiens), P00533 [L858R,T790M]; conditions: Compound concentration 1000.0 nM
[19] = biological target: Casein kinase I isoform gamma-2 (Homo sapiens) (UniProt P78368); conditions: Compound concentration 1000.0 nM
[20] = biological target: Tyrosine-protein kinase Fer (Homo sapiens) (UniProt P16591); conditions: Compound concentration 1000.0 nM
[21] = biological target: Dual specificity tyrosine-phosphorylation-regulated kinase 1B (Homo sapiens) (UniProt Q9Y463); conditions: Compound concentration 1000.0 nM
[22] = biological target: Cannabinoid receptor 2 (Homo sapiens) (UniProt P34972); assay: CB2 (h) CEREP ligand profiling; conditions: filed as agonist, Compound concentration 10.0 uM
[23] = biological target: G protein-coupled receptor kinase 3 (Homo sapiens) (UniProt P35626); conditions: Compound concentration 1000.0 nM
[24] = biological target: P2X receptor (Rattus norvegicus) (UniProt P51579+P49653+P51578+Q64663+P47824+P51577+P49654); assay: P2X CEREP ligand profiling; assay type: protein assay; conditions: filed as agonist; Compound concentration 10.0 uM
[25] = tested on: Serine/threonine-protein kinase B-raf (Homo sapiens), P15056 [V600E]; conditions: Compound concentration 1000.0 nM
[26] = biological target: Serine/threonine-protein kinase 17A (Homo sapiens) (UniProt Q9UEE5); conditions: Compound concentration 1000.0 nM
[27] = biological target: T1, 5-hydroxytryptamine receptor 3A (Homo sapiens) (UniProt P46098); assay: 5-HT3 (h) CEREP ligand profiling; conditions: filed as antagonist, Compound concentration 10.0 uM
T1 sequence (whole entry): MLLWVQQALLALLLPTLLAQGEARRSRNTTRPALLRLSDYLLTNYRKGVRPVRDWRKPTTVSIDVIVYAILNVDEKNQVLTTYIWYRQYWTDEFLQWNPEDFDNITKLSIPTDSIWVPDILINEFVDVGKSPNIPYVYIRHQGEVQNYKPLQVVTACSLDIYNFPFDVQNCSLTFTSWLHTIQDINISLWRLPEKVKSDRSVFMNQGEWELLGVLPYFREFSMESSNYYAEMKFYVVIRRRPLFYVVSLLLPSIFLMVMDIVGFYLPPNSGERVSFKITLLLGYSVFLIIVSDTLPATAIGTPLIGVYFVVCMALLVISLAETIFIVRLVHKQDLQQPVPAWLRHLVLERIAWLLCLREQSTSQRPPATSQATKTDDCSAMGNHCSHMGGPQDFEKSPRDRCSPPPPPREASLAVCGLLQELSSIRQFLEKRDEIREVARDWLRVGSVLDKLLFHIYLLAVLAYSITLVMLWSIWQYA

[28] = biological target: T2, 5-hydroxytryptamine receptor 2C (Homo sapiens) (UniProt P28335); assay: 5-HT2C (h) CEREP ligand profiling; conditions: filed as antagonist, Compound concentration 10.0 uM
T2 sequence (whole entry): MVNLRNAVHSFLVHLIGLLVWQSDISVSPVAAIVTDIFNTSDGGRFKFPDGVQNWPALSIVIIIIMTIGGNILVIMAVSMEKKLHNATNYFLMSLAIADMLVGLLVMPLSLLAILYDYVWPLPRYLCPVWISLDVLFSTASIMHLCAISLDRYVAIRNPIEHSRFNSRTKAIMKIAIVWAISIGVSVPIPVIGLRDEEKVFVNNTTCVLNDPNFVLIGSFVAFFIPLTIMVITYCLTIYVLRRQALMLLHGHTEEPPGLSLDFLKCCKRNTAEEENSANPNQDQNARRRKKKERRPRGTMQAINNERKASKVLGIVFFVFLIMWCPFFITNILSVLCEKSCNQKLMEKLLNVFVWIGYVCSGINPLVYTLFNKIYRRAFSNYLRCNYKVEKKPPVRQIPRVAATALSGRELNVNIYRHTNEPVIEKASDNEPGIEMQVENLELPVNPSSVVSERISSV

[29] = biological target: Dual specificity mitogen-activated protein kinase kinase 6 (Homo sapiens) (UniProt P52564); conditions: Compound concentration 1000.0 nM
[30] = biological target: Histamine H3 receptor (Homo sapiens) (UniProt Q9Y5N1); conditions: Compound concentration 10.0 uM
[31] = biological target: Serine/threonine-protein kinase 3 (Homo sapiens) (UniProt Q13188); conditions: Compound concentration 1000.0 nM
[32] = biological target: 5-hydroxytryptamine receptor 1E (Homo sapiens) (UniProt P28566); conditions: Compound concentration 10.0 uM

Serine/threonine-protein kinase B-raf (Homo sapiens), P15056 [V600E], sequence (P15056 whole entry V600E): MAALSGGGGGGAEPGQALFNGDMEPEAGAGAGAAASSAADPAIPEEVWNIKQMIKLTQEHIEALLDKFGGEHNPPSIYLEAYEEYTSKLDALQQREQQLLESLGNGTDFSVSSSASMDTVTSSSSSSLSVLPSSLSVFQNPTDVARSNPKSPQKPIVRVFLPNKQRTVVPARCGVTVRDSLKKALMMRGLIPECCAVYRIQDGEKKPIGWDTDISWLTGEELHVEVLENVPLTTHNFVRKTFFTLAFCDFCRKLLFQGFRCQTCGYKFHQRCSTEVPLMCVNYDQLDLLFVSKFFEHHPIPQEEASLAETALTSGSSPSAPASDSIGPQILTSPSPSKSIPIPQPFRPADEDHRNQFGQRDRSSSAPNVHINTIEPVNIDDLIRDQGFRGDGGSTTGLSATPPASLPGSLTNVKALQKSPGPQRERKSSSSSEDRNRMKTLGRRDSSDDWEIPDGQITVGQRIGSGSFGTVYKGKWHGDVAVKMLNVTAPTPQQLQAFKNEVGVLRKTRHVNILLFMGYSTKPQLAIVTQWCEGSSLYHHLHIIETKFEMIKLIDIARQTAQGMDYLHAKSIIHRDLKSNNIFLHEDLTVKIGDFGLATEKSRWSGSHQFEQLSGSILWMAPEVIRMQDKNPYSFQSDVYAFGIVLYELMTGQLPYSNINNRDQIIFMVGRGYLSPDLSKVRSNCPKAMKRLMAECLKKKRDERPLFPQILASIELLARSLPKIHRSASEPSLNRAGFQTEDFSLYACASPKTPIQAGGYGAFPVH
Dual specificity mitogen-activated protein kinase kinase 6 (Homo sapiens), sequence (P52564 whole entry): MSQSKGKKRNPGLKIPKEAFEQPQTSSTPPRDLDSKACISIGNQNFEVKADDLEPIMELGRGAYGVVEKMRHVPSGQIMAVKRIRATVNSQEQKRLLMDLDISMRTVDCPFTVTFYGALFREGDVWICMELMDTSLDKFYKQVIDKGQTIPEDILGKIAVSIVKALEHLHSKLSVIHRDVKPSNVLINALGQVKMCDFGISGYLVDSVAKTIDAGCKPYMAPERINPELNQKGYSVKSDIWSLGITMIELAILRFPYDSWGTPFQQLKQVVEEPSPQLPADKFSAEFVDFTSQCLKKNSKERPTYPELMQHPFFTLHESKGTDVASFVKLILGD
Serine/threonine-protein kinase 3 (Homo sapiens), sequence (Q13188 whole entry): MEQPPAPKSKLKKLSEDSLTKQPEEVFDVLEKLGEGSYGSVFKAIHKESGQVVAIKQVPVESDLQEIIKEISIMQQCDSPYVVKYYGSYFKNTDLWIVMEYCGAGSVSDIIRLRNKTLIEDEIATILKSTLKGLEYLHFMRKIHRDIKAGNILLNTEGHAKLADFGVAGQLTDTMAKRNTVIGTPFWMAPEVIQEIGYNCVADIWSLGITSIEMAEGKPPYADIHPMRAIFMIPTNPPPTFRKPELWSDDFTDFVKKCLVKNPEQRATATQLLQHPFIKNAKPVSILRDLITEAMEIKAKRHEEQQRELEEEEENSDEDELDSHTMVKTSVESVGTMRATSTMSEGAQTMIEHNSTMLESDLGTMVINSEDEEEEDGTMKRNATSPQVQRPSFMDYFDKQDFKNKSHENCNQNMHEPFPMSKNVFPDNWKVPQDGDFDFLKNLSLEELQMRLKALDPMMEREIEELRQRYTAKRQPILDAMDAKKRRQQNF
Tyrosine-protein kinase Fgr (Homo sapiens), sequence (P09769 2-529 limits assumed): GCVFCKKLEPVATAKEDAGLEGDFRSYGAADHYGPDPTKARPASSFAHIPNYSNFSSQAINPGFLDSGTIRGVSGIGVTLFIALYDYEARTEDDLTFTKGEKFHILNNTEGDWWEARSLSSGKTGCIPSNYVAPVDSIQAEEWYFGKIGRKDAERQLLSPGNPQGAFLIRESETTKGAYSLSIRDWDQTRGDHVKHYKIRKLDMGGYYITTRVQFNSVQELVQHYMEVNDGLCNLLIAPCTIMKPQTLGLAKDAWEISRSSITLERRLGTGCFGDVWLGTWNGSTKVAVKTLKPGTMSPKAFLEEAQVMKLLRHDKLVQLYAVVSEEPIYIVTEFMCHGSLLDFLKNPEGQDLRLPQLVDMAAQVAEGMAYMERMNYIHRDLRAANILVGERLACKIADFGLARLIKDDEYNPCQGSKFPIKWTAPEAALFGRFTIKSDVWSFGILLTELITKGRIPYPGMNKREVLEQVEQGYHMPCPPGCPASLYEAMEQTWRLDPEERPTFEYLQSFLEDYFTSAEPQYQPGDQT
Cyclin-dependent kinase 19 (Homo sapiens), sequence (Q9BWU1 whole entry): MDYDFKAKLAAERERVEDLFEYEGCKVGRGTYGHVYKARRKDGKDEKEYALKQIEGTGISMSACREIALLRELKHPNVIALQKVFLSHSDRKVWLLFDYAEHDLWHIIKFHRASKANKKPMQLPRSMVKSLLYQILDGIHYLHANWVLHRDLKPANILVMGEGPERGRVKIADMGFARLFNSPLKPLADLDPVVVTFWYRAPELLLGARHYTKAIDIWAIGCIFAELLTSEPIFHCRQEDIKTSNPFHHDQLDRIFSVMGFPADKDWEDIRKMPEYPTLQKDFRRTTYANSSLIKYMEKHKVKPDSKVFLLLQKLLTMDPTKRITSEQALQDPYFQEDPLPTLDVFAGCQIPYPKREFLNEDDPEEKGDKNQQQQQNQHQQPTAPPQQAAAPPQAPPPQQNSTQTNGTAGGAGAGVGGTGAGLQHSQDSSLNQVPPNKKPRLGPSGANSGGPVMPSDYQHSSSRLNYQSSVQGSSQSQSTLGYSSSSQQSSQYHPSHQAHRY
Calcium/calmodulin-dependent protein kinase kinase 1 (Homo sapiens), sequence (Q8N5S9 whole entry, looked up): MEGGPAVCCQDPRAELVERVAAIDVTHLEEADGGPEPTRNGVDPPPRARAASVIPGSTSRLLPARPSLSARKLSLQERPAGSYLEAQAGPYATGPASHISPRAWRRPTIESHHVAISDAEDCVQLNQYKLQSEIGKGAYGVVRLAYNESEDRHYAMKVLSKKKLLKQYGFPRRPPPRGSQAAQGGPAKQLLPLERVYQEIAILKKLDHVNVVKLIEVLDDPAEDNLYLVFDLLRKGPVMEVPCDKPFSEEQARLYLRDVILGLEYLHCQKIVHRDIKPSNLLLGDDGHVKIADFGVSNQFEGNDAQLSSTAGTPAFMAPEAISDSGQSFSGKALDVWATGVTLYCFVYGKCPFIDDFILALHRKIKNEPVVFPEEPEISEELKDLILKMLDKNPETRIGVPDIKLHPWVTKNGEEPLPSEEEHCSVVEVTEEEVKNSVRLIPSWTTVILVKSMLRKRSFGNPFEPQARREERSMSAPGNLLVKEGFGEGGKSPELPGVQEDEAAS
Serine/threonine-protein kinase TAO2 (Homo sapiens), sequence (Q9UL54 whole entry): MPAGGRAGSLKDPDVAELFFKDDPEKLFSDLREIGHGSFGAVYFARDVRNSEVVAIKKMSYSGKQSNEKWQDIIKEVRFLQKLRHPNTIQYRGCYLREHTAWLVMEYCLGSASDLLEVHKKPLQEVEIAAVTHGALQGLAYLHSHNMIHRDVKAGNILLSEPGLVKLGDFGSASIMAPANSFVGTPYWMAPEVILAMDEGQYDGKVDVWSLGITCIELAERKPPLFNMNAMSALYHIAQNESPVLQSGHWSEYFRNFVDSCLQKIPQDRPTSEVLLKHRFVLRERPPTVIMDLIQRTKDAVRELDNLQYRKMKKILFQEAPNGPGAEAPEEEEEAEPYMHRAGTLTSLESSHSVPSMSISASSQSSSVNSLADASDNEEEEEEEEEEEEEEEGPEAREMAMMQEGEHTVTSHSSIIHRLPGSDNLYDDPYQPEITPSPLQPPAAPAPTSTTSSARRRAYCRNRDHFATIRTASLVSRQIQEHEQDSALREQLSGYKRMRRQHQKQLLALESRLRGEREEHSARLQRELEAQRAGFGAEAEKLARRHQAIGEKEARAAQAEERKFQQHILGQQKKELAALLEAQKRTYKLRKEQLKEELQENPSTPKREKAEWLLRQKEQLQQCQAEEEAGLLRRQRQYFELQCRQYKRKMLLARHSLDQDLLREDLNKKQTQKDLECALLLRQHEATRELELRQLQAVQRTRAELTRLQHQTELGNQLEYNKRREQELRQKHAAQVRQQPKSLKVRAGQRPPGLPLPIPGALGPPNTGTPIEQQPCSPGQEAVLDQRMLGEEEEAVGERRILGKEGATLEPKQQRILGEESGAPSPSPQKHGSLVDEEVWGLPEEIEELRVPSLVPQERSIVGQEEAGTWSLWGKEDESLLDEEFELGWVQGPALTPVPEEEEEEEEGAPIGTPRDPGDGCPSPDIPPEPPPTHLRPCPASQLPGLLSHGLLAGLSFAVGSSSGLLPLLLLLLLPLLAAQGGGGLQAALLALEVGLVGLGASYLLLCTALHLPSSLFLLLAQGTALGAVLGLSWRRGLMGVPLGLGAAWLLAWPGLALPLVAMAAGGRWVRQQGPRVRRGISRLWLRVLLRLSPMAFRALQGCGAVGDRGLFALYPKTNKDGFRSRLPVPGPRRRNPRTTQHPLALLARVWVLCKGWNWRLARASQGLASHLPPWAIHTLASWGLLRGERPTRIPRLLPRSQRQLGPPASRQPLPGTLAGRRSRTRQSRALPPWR
Casein kinase I isoform gamma-2 (Homo sapiens), sequence (P78368 whole entry, looked up, canonical isoform): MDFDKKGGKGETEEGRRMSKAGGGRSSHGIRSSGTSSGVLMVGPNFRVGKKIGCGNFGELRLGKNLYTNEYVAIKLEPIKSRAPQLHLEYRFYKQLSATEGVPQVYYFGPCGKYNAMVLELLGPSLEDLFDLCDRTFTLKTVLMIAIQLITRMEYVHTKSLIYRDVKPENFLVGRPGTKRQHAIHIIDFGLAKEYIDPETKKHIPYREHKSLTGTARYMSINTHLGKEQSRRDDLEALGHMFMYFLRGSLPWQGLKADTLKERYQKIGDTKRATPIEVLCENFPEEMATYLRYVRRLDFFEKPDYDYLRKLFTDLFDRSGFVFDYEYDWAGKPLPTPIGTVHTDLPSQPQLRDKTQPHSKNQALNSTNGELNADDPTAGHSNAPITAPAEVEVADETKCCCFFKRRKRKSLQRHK

CNC(=O)Nc1ccc2c(c1)[C@@]1(CC2)OC(=O)N(CC(=O)N(Cc2ccc(F)cc2)[C@@H](C)C(F)(F)F)C1=O [A-486]
inactive: residual activity [1] 100% | residual activity [2] 100% | residual activity [3] 100% | residual activity [4] 100% | residual activity [5] 100% | residual activity [6] 100% | residual activity [7] 90% | inhibition [8] 41% | residual activity [9] 100% | residual activity [10] 96% | residual activity [11] 60% | residual activity [12] 78% | residual activity [13] 88% | residual activity [14] 100% | residual activity [15] 84% | residual activity [16] 100% | residual activity [17] 95% | residual activity [18] 83% | residual activity [19] 100% | residual activity [20] 79% | residual activity [21] 100% | inhibition [22] 4% | residual activity [23] 100% | inhibition [24] -5% | residual activity [25] 96% | residual activity [26] 88% | inhibition [27] 4% | inhibition [28] -7% | residual activity [29] 100% | inhibition [30] 13.2% | residual activity [31] 97% | inhibition [32] 0.33%

CNC(=O)Nc1ccc2c(c1)CC[C@@]21OC(=O)N(CC(=O)N(Cc2ccc(F)cc2)[C@@H](C)C(F)(F)F)C1=O [A-485]
inactive: residual activity [1] 92% | residual activity [2] 70% | residual activity [3] 75% | residual activity [4] 100% | residual activity [5] 92% | residual activity [6] 92% | residual activity [7] 77% | inhibition [8] -4% | residual activity [9] 100% | residual activity [10] 100% | residual activity [11] 63% | residual activity [12] 95% | residual activity [13] 75% | residual activity [14] 96% | residual activity [15] 100% | residual activity [16] 100% | residual activity [17] 91% | residual activity [18] 91% | residual activity [19] 87% | residual activity [20] 87% | residual activity [21] 81% | inhibition [22] 67% | residual activity [23] 100% | inhibition [24] 12% | residual activity [25] 100% | residual activity [26] 100% | inhibition [27] 0% | inhibition [28] -2% | residual activity [29] 100% | inhibition [30] 0.39% | residual activity [31] 100% | inhibition [32] 4.23%
